Laboratory results: ChEMBL document CHEMBL1146031, “N-acylated sulfonamide sodium salt: a prodrug of choice for the bifunctional 2-hydroxymethyl-4-(5-phenyl-3-trifluoromethyl-pyrazol-1-yl) benzenesulfonamide class of COX-2 inhibitors” (Bioorg Med Chem Lett, 2006)
“And” between values parts separate entries of the source, which are not always exact repeats. Equal values may be shown once. The source made the active and inactive calls. No cut-off for these calls is given here.

Columns and labels:
Rattus norvegicus [1] = experiment: Anti-inflammatory activity in orally dosed Wistar rat assessed as reduction of carrageenan-induced paw edema; type: functional; details: po; for Inhibition: 30 mg/kg
[2] = biological target: Prostaglandin G/H synthase 1 (Ovis aries) (UniProt P05979); experiment: Inhibition of microsomal COX1 at 10 uM
Chain of Prostaglandin G/H synthase 1 (Ovis aries) (P05979 whole entry, looked up): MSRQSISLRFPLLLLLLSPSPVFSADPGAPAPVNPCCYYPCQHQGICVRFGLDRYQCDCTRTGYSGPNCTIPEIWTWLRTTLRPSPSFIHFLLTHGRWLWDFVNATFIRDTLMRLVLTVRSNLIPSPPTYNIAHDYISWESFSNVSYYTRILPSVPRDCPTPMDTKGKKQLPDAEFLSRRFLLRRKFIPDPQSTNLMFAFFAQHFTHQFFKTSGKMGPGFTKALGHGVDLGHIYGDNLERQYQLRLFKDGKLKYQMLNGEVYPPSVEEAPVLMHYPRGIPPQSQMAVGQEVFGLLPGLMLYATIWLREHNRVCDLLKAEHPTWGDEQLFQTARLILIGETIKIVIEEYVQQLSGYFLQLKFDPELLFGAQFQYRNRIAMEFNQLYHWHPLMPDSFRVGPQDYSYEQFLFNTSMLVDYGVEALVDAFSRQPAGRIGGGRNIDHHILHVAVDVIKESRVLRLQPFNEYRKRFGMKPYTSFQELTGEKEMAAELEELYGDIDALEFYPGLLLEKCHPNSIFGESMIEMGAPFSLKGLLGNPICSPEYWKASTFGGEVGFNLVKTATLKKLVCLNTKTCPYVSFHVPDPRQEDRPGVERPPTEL

[3] = biological target: T1, Prostaglandin G/H synthase 2 (Homo sapiens) (UniProt P35354); experiment: Inhibition of human recombinant COX2 expressed in sf9 cells infected with baculovirus at 10 uM
T1 sequence (whole entry): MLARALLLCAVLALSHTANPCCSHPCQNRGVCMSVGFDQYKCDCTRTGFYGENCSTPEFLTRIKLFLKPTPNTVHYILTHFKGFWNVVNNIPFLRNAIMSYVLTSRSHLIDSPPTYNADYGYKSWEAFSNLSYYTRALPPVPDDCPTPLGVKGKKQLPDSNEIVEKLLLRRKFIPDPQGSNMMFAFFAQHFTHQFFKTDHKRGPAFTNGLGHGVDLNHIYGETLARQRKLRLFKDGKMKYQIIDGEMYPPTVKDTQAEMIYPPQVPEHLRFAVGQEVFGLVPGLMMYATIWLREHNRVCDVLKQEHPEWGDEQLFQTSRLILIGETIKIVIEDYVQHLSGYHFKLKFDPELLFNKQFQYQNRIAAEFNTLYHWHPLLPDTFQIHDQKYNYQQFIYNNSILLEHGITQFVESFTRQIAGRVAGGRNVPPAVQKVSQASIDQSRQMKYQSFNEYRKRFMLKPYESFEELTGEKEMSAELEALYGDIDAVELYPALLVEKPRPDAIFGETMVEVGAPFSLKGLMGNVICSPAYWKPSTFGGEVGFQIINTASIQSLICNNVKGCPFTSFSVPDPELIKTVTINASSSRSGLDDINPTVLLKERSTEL

Rattus norvegicus [4] = experiment: Anti-inflammatory activity in orally dosed Wistar rat assessed as reduction of carrageenan-induced paw edema at 30 mg/kg, po; type: functional
[5] = AUC in Wistar rat at 100 mg/kg, po; type: ADME, organism-based; design: dose 100 mg/kg, route oral; details: plasma
[6] = Cmax in Wistar rat at 100 mg/kg, po; type: ADME, organism-based; design: dose 100 mg/kg, route oral; details: in vivo
[7] = Tmax in Wistar rat at 100 mg/kg, po; type: ADME, organism-based; design: dose 100 mg/kg, route oral; details: in vivo
[8] = AUC (0-infinity) in Wistar rat at 100 mg/kg, po; type: ADME, organism-based; design: time infinity, dose 100 mg/kg, route oral; details: plasma
[9] = Terminal half life in Wistar rat at 100 mg/kg, po; type: ADME, organism-based; design: dose 100 mg/kg, route oral; details: in vivo
Rattus norvegicus [10] = experiment: Anti-inflammatory activity in orally dosed Wistar rat assessed as reduction of carrageenan-induced paw edema at 1 mg/kg, po; type: functional, organism-based; design: dose 1 mg/kg
Rattus norvegicus [11] = experiment: Anti-inflammatory activity in orally dosed Wistar rat assessed as reduction of carrageenan-induced paw edema at 3 mg/kg, po; type: functional, organism-based; design: dose 3 mg/kg
Rattus norvegicus [12] = experiment: Anti-inflammatory activity in orally dosed Wistar rat assessed as reduction of carrageenan-induced paw edema at 10 mg/kg, po; type: functional, organism-based; design: dose 10 mg/kg
Rattus norvegicus [13] = experiment: Anti-inflammatory activity in orally dosed Wistar rat assessed as reduction of carrageenan-induced paw edema at 0.3 mg/kg, po; type: functional

| inhibition [2] | inhibition [3] | Compound | ED50 (Rattus norvegicus [1]) [mg/kg] | inhibition at 30 mg/kg (Rattus norvegicus [4]) [%] | other results |
| --- | --- | --- | --- | --- | --- |
| 12% | – | CCC(=O)OCc1cc(-n2nc(C(F)(F)F)cc2-c2ccc(OC)c(C)c2)ccc1S(N)(=O)=O | 10.9 | – | – |
| 0% | 65% | CCC(=O)OCc1cc(-n2nc(C(F)(F)F)cc2-c2ccc(Br)cc2)ccc1S(N)(=O)=O | 17 | – | – |
| – | – | CCC(=O)[N-]S(=O)(=O)c1ccc(-n2nc(C(F)(F)F)cc2-c2ccc3c(c2)CCO3)cc1COC(=O)CC.[Na+] | – | 43 | – |
| – | – | CCC(=O)[N-]S(=O)(=O)c1ccc(-n2nc(C(F)(F)F)cc2-c2ccc(SC)cc2)cc1COC(=O)CC.[Na+] | – | 40 | – |
| – | – | CCC(=O)[N-]S(=O)(=O)c1ccc(-n2nc(C(F)(F)F)cc2-c2ccc(Br)cc2)cc1COC(=O)CC.[Na+] | 12.5 | – | – |
| – | – | CCC(=O)[N-]S(=O)(=O)c1ccc(-n2nc(C(F)(F)F)cc2-c2ccc3c(c2)CCC3)cc1COC(=O)CC.[Na+] | – | 41 | – |
| – | – | CCC(=O)NS(=O)(=O)c1ccc(-n2nc(C(F)(F)F)cc2-c2ccc(OC)c(C)c2)cc1COC(=O)CC [listing 1 of 2 here] | – | 48 | – |
| – | – | COc1ccc(-c2cc(C(F)F)nn2-c2ccc(S(N)(=O)=O)c(CO)c2)cc1C | 18.5 | – | AUC [5]: 2.4 µg·h/mL; Cmax [6]: 0.7 µg/mL; Tmax [7]: 2.25 h |
| 0% | 75% | CCC(=O)OCc1cc(-n2nc(C(F)F)cc2-c2ccc(OC)c(C)c2)ccc1S(N)(=O)=O | 15 | – | – |
| 0% | 2% and 12% | CCC(=O)NS(=O)(=O)c1ccc(-n2nc(C(F)(F)F)cc2-c2ccc3c(c2)CCO3)cc1COC(=O)CC [listing 1 of 2 here] | – | – | – |
| 0% | 61% | CCC(=O)OCc1cc(-n2nc(C(F)(F)F)cc2-c2ccc3c(c2)CCO3)ccc1S(N)(=O)=O | 8.5 | – | – |
| – | – | COc1ccc(-c2cc(C(F)(F)F)nn2-c2ccc(S(N)(=O)=O)c(CO)c2)cc1C | 21.7 | – | AUC [5]: 73.7 µg·h/mL; AUC(0-inf) [8]: 112 µg·h/mL; Cmax [6]: 6.37 µg/mL; Tmax [7]: 3.5 h; half-life [9]: 6.63 h |
| 0% | 14% | CCC(=O)[N-]S(=O)(=O)c1ccc(-n2nc(C(F)F)cc2-c2ccc(Br)cc2)cc1CO.[Na+] | 5.6 | – | AUC [5]: 289 µg·h/mL; AUC(0-inf) [8]: 321 µg·h/mL; Cmax [6]: 28.4 µg/mL; Tmax [7]: 2.85 h; half-life [9]: 7.42 h |
| 0% | – | CCC(=O)NS(=O)(=O)c1ccc(-n2nc(C(F)(F)F)cc2-c2ccc3c(c2)CCC3)cc1COC(=O)CC [listing 1 of 2 here] | – | – | Activity (Rattus norvegicus [10]): inactive; Activity (Rattus norvegicus [11]): inactive; Activity (Rattus norvegicus [12]): inactive |
| 0% | – | CCC(=O)NS(=O)(=O)c1ccc(-n2nc(C(F)F)cc2-c2ccc(OC)c(C)c2)cc1COC(=O)CC [listing 1 of 2 here] | – | – | – |
| – | – | CCC(=O)NS(=O)(=O)c1ccc(-n2nc(C(F)F)cc2-c2ccc(OC)c(C)c2)cc1COC(=O)CC [listing 2 of 2 here] | – | 42 | – |
| – | – | CCC(=O)NS(=O)(=O)c1ccc(-n2nc(C(F)(F)F)cc2-c2ccc3c(c2)CCC3)cc1COC(=O)CC [listing 2 of 2 here] | – | – | Inhibition (Rattus norvegicus [1]): 64% |
| – | – | CCC(=O)NS(=O)(=O)c1ccc(-n2nc(C(F)(F)F)cc2-c2ccc(SC)cc2)cc1COC(=O)CC [listing 1 of 2 here] | – | 38 | – |
| – | – | NS(=O)(=O)c1ccc(-n2nc(C(F)(F)F)cc2-c2ccc(Br)cc2)cc1CO | – | 35 | – |
| – | – | CCC(=O)NS(=O)(=O)c1ccc(-n2nc(C(F)F)cc2-c2ccc(Br)cc2)cc1COC(=O)CC [listing 1 of 2 here] | – | 45 | – |
| 5% | 25% | CCC(=O)[N-]S(=O)(=O)c1ccc(-n2nc(C(F)(F)F)cc2-c2ccc3c(c2)CCO3)cc1CO.[Na+] | 7.5 | – | – |
| – | – | CCC(=O)[N-]S(=O)(=O)c1ccc(-c2c(-c3ccccc3)noc2C)cc1.[Na+] [PARECOXIB SODIUM] | – | – | inhibition at 0.3 mg/kg (Rattus norvegicus [13]): 98% |
| 0% | 15% | CCC(=O)[N-]S(=O)(=O)c1ccc(-n2nc(C(F)(F)F)cc2-c2ccc(OC)c(C)c2)cc1CO.[Na+] | 6.2 | – | AUC [5]: 125 µg·h/mL; AUC(0-inf) [8]: 149 µg·h/mL; Cmax [6]: 9.32 µg/mL; Tmax [7]: 3.78 h; half-life [9]: 6.82 h |

| inhibition [2] | inhibition [3] | Compound | ED50 (Rattus norvegicus [1]) [mg/kg] | inhibition at 30 mg/kg (Rattus norvegicus [4]) [%] | other results |
| --- | --- | --- | --- | --- | --- |
| 0% | 10% and 5% | CCC(=O)NS(=O)(=O)c1ccc(-n2nc(C(F)(F)F)cc2-c2ccc(OC)c(C)c2)cc1COC(=O)CC [listing 2 of 2 here] | – | – | – |
| – | – | CSc1ccc(-c2cc(C(F)(F)F)nn2-c2ccc(S(N)(=O)=O)c(CO)c2)cc1 | – | 47 | – |
| 5% | 55% | CCC(=O)OCc1cc(-n2nc(C(F)F)cc2-c2ccc(Br)cc2)ccc1S(N)(=O)=O | – | 40 | – |
| – | – | Cc1ccc(-c2cc(C(F)(F)F)nn2-c2ccc(S(N)(=O)=O)cc2)cc1 [CELECOXIB] | 6.7 | – | – |
| 0% | 57% | CCC(=O)OCc1cc(-n2nc(C(F)(F)F)cc2-c2ccc3c(c2)CCC3)ccc1S(N)(=O)=O | – | 30 | – |
| 0% | 22% | CCC(=O)[N-]S(=O)(=O)c1ccc(-n2nc(C(F)(F)F)cc2-c2ccc3c(c2)CCC3)cc1CO.[Na+] | – | – | Inhibition (Rattus norvegicus [1]): 52%; Activity (Rattus norvegicus [10]): inactive; Activity (Rattus norvegicus [11]): inactive; Activity (Rattus norvegicus [12]): inactive |
| – | – | NS(=O)(=O)c1ccc(-n2nc(C(F)(F)F)cc2-c2ccc3c(c2)CCO3)cc1CO | 22.3 | – | – |
| – | – | CCC(=O)NS(=O)(=O)c1ccc(-n2nc(C(F)(F)F)cc2-c2ccc3c(c2)CCO3)cc1COC(=O)CC [listing 2 of 2 here] | – | 25 | – |
| – | – | CCC(=O)NS(=O)(=O)c1ccc(-n2nc(C(F)(F)F)cc2-c2ccc(Br)cc2)cc1COC(=O)CC [listing 1 of 2 here] | – | 37 | – |
| 0% | 2% | CCCC(=O)[N-]S(=O)(=O)c1ccc(-n2nc(C(F)(F)F)cc2-c2ccc(C)cc2)cc1.[Na+] | 6.64 | – | – |
| 0% | 25% and 35% | CCC(=O)NS(=O)(=O)c1ccc(-n2nc(C(F)(F)F)cc2-c2ccc(Br)cc2)cc1COC(=O)CC [listing 2 of 2 here] | – | – | – |
| 0% | 23% | CCC(=O)[N-]S(=O)(=O)c1ccc(-n2nc(C(F)(F)F)cc2-c2ccc(Br)cc2)cc1CO.[Na+] | 7.2 | – | – |
| 0% | 21% | CCC(=O)[N-]S(=O)(=O)c1ccc(-n2nc(C(F)(F)F)cc2-c2ccc(SC)cc2)cc1CO.[Na+] | – | 36 | – |
| – | – | CCC(=O)[N-]S(=O)(=O)c1ccc(-n2nc(C(F)(F)F)cc2-c2ccc(OC)c(C)c2)cc1COC(=O)CC.[Na+] | – | 34 | – |
| 0% | 40% | CCC(=O)OCc1cc(-n2nc(C(F)(F)F)cc2-c2ccc(SC)cc2)ccc1S(N)(=O)=O | – | – | Inhibition (Rattus norvegicus [1]): 60%; Activity (Rattus norvegicus [10]): inactive; Activity (Rattus norvegicus [11]): inactive; Activity (Rattus norvegicus [12]): inactive |
| – | – | NS(=O)(=O)c1ccc(-n2nc(C(F)(F)F)cc2-c2ccc3c(c2)CCC3)cc1CO | 23.5 | – | – |
| – | – | CCC(=O)[N-]S(=O)(=O)c1ccc(-n2nc(C(F)F)cc2-c2ccc(OC)c(C)c2)cc1COC(=O)CC.[Na+] | – | 32 | – |
| 0% | 18% and 25% | CCC(=O)NS(=O)(=O)c1ccc(-n2nc(C(F)(F)F)cc2-c2ccc(SC)cc2)cc1COC(=O)CC [listing 2 of 2 here] | – | – | – |
| 0% | 13% | CCC(=O)[N-]S(=O)(=O)c1ccc(-n2nc(C(F)F)cc2-c2ccc(OC)c(C)c2)cc1CO.[Na+] | 6.3 | – | AUC [5]: 106 µg·h/mL; AUC(0-inf) [8]: 114 µg·h/mL; Cmax [6]: 7.54 µg/mL; Tmax [7]: 2.82 h; half-life [9]: 5.92 h |
| – | – | CCC(=O)[N-]S(=O)(=O)c1ccc(-n2nc(C(F)F)cc2-c2ccc(Br)cc2)cc1COC(=O)CC.[Na+] | 7.9 | – | – |
| 0% and 1% | 12% and 25% | CCC(=O)NS(=O)(=O)c1ccc(-n2nc(C(F)F)cc2-c2ccc(Br)cc2)cc1COC(=O)CC [listing 2 of 2 here] | – | – | – |
| – | – | NS(=O)(=O)c1ccc(-n2nc(C(F)F)cc2-c2ccc(Br)cc2)cc1CO | – | 42 | AUC [5]: 239 µg·h/mL; AUC(0-inf) [8]: 265 µg·h/mL; Cmax [6]: 20.8 µg/mL; Tmax [7]: 2.67 h; half-life [9]: 7.51 h |
